Results published in patent US6355799B1, “Substituted benzene compounds, process for their preparation, and herbicidal and defoliant compositions containing them” (ISK Americas Incorporated, priority 1997, dated 2002).

Experiments:
Type in all cases: in vivo
[1] = tested on: redroot pigweed (Amaranthus retroflexus, AMARE); assay: Pre-emerge test, greenhouse herbicide activity screening; settings: rating scale 0-100, 14 days after application
Outline: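 Rating: 0–100 visual injury, 14 DAA. Application: acetone, 187 l/ha, 15–1000 g ai/ha, flat-fan track sprayer with nozzle 40–45 cm above soil or canopy. Post-emerge runs used 0.25% v/v surfactant on 2–3 leaf plants.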

[2] = tested on: barnyardgrass (Echinochloa crus-galli, ECHCG); assay: as above; settings: rating scale 0-100, 14 days after application
Outline: (§1)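 Herbicidal damage is scored 0 (none) to 100 (complete plant death) two weeks after a simulated field spray. Rates span 15–1000 g ai/ha, delivered in acetone at 187 l/ha. For post-emergence treatments, plants have 2–3 leaves and the spray carries 0.25% v/v non-ionic surfactant.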

[3] = tested on: green foxtail (Setaria viridis, SETVI); assay: as above; settings: rating scale 0-100, 14 days after application
Outline: as §1

[4] = tested on: ivyleaf morningglory (Ipomoea hederacea, IPOHE); assay: as above; settings: rating scale 0-100, 14 days after application
Outline: as §1

[5] = tested on: johnsongrass (Sorghum halepense, SORHA); assay: as above; settings: rating scale 0-100, 14 days after application
Outline: as §1

[6] = tested on: lambsquarters (Chenopodium album, CHEAL); assay: as above; settings: rating scale 0-100, 14 days after application
Outline: as §1

[7] = tested on: large crabgrass (Digitaria sanguinalis, DIGSA); assay: as above; settings: rating scale 0-100, 14 days after application
Outline: as §1

[8] = tested on: sicklepod (Cassia obtusifolia, CASOB); assay: as above; settings: rating scale 0-100, 14 days after application
Outline: as §1

[9] = tested on: velvetleaf (Abutilon theophrasti, ABUTH); assay: as above; settings: rating scale 0-100, 14 days after application
Outline: as §1

[10] = tested on: field corn (Zea mays L., var. Dekalb 535, CORN); assay: Pre-emerge test, crop safety; settings: rating scale 0-100, 14 days after application
Outline: (§2)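 Plants grown in 10 cm pots of sandy loam mix received acetone-dissolved compounds through a moving flat-fan nozzle. Doses ranged from 15 to 1000 g ai/ha. Pre-emerge pots were seeded one day earlier, post-emerge pots 8–21 days earlier. Fourteen days on, each pot was graded 0–100 for damage.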

[11] = tested on: upland rice (Oryza sp., var. Tebonnet, RICE); assay: Pre-emerge test, crop safety; settings: rating scale 0-100, 14 days after application
Outline: as §2

[12] = tested on: barnyardgrass (Echinochloa crus-galli, ECHCG); assay: Post-emerge test, greenhouse herbicide activity screening; settings: for Post-emerge Herbicidal Activity, phytotoxicity rating ECHCG: rating scale 0-100 (0 no damage, 100 complete death), 14 days after application; for Post-emerge Herbicidal Activity ECHCG: phytotoxicity rating 0-100 at 14 days after application
Outline: as §1

[13] = tested on: green foxtail (Setaria viridis, SETVI); assay: as above; settings: for Post-emerge Herbicidal Activity, phytotoxicity rating SETVI: rating scale 0-100 (0 no damage, 100 complete death), 14 days after application; for Post-emerge Herbicidal Activity SETVI: phytotoxicity rating 0-100 at 14 days after application
Outline: as §1

[14] = tested on: ivyleaf morningglory (Ipomoea hederacea, IPOHE); assay: as above; settings: for Post-emerge Herbicidal Activity, phytotoxicity rating IPOHE: rating scale 0-100 (0 no damage, 100 complete death), 14 days after application; for Post-emerge Herbicidal Activity IPOHE: phytotoxicity rating 0-100 at 14 days after application
Outline: as §1

[15] = tested on: johnsongrass (Sorghum halepense, SORHA); assay: as above; settings: for Post-emerge Herbicidal Activity, phytotoxicity rating SORHA: rating scale 0-100 (0 no damage, 100 complete death), 14 days after application; for Post-emerge Herbicidal Activity SORHA: phytotoxicity rating 0-100 at 14 days after application
Outline: as §1

[16] = tested on: lambsquarters (Chenopodium album, CHEAL); assay: as above; settings: for Post-emerge Herbicidal Activity, phytotoxicity rating CHEAL: rating scale 0-100 (0 no damage, 100 complete death), 14 days after application; for Post-emerge Herbicidal Activity CHEAL: phytotoxicity rating 0-100 at 14 days after application
Outline: as §1

[17] = tested on: large crabgrass (Digitaria sanguinalis, DIGSA); assay: as above; settings: for Post-emerge Herbicidal Activity, phytotoxicity rating DIGSA: rating scale 0-100 (0 no damage, 100 complete death), 14 days after application; for Post-emerge Herbicidal Activity DIGSA: phytotoxicity rating 0-100 at 14 days after application
Outline: as §1

[18] = tested on: redroot pigweed (Amaranthus retroflexus, AMARE); assay: as above; settings: for Post-emerge Herbicidal Activity, phytotoxicity rating AMARE: rating scale 0-100 (0 no damage, 100 complete death), 14 days after application; for Post-emerge Herbicidal Activity AMARE: phytotoxicity rating 0-100 at 14 days after application
Outline: as §1

[19] = tested on: sicklepod (Cassia obtusifolia, CASOB); assay: as above; settings: for Post-emerge Herbicidal Activity, phytotoxicity rating CASOB: rating scale 0-100 (0 no damage, 100 complete death), 14 days after application; for Post-emerge Herbicidal Activity CASOB: phytotoxicity rating 0-100 at 14 days after application
Outline: as §1

[20] = tested on: velvetleaf (Abutilon theophrasti, ABUTH); assay: as above; settings: for Post-emerge Herbicidal Activity, phytotoxicity rating ABUTH: rating scale 0-100 (0 no damage, 100 complete death), 14 days after application; for Post-emerge Herbicidal Activity ABUTH: phytotoxicity rating 0-100 at 14 days after application
Outline: as §1

[21] = tested on: field corn (Zea mays L., var. Dekalb 535, CORN); assay: Post-emerge test, crop safety; settings: for Post-emerge phytotoxicity rating CORN (crop damage): rating scale 0-100 (0 no damage, 100 complete death), 14 days after application; for Post-emerge Herbicidal Activity CORN: crop damage rating 0-100 at 14 days after application
Outline: as §1

[22] = tested on: upland rice (Oryza sp., var. Tebonnet, RICE); assay: Post-emerge test, crop safety; settings: for Post-emerge phytotoxicity rating RICE (crop damage): rating scale 0-100 (0 no damage, 100 complete death), 14 days after application; for Post-emerge Herbicidal Activity RICE: crop damage rating 0-100 at 14 days after application
Outline: as §1

COc1c(Cl)cc(F)c(-n2c(=O)cc(C(F)(F)F)n(C)c2=O)c1CC(Cl)C(=O)OCCOc1ccccc1 (single isomer, unassigned) [14-28]
100: Pre-emerge herbicidal activity, phytotoxicity rating AMARE ([1]; 250 g ai/ha) | Pre-emerge herbicidal activity, phytotoxicity rating DIGSA ([7]; 250 g ai/ha) | Post-emerge Herbicidal Activity, phytotoxicity rating ECHCG ([12]; Rate 63 g ai/ha) | Post-emerge Herbicidal Activity, phytotoxicity rating ECHCG ([12]; Rate 250 g ai/ha) | Post-emerge Herbicidal Activity, phytotoxicity rating CHEAL ([16]; Rate 250 g ai/ha) | Post-emerge Herbicidal Activity, phytotoxicity rating AMARE ([18]; Rate 250 g ai/ha) | Post-emerge Herbicidal Activity, phytotoxicity rating ABUTH ([20]; Rate 63 g ai/ha) | Post-emerge Herbicidal Activity, phytotoxicity rating ABUTH ([20]; Rate 250 g ai/ha)
0: Pre-emerge herbicidal activity, phytotoxicity rating ECHCG ([2]; 63 g ai/ha) | Pre-emerge herbicidal activity, phytotoxicity rating SETVI ([3]; 63 g ai/ha) | Pre-emerge herbicidal activity, phytotoxicity rating SETVI ([3]; 250 g ai/ha) | Pre-emerge herbicidal activity, phytotoxicity rating IPOHE ([4]; 63 g ai/ha) | Pre-emerge herbicidal activity, phytotoxicity rating IPOHE ([4]; 250 g ai/ha) | Pre-emerge herbicidal activity, phytotoxicity rating SORHA ([5]; 63 g ai/ha) | Pre-emerge herbicidal activity, phytotoxicity rating CHEAL ([6]; 63 g ai/ha) | Pre-emerge herbicidal activity, phytotoxicity rating DIGSA ([7]; 63 g ai/ha) | Pre-emerge herbicidal activity, phytotoxicity rating CASOB ([8]; 63 g ai/ha) | Pre-emerge herbicidal activity, phytotoxicity rating CASOB ([8]; 250 g ai/ha) | Pre-emerge herbicidal activity, phytotoxicity rating ABUTH ([9]; 63 g ai/ha) | Pre-emerge phytotoxicity rating, crop damage CORN ([10]; 63 g ai/ha) | Pre-emerge phytotoxicity rating, crop damage RICE ([11]; 63 g ai/ha) | Pre-emerge phytotoxicity rating, crop damage RICE ([11]; 250 g ai/ha) | Post-emerge Herbicidal Activity, phytotoxicity rating SETVI ([13]; Rate 63 g ai/ha) | Post-emerge Herbicidal Activity, phytotoxicity rating SORHA ([15]; Rate 63 g ai/ha) | Post-emerge phytotoxicity rating RICE (crop damage) ([22]; Rate 63 g ai/ha)
95: Pre-emerge herbicidal activity, phytotoxicity rating CHEAL ([6]; 250 g ai/ha) | Post-emerge Herbicidal Activity, phytotoxicity rating CHEAL ([16]; Rate 63 g ai/ha)
70: Post-emerge Herbicidal Activity, phytotoxicity rating IPOHE ([14]; Rate 250 g ai/ha) | Post-emerge phytotoxicity rating CORN (crop damage) ([21]; Rate 250 g ai/ha)
80: Pre-emerge herbicidal activity, phytotoxicity rating ABUTH ([9]; 250 g ai/ha)
90: Pre-emerge herbicidal activity, phytotoxicity rating AMARE ([1]; 63 g ai/ha) | Post-emerge Herbicidal Activity, phytotoxicity rating AMARE ([18]; Rate 63 g ai/ha)
50: Post-emerge Herbicidal Activity, phytotoxicity rating IPOHE ([14]; Rate 63 g ai/ha) | Post-emerge Herbicidal Activity, phytotoxicity rating SORHA ([15]; Rate 250 g ai/ha) | Post-emerge Herbicidal Activity, phytotoxicity rating DIGSA ([17]; Rate 250 g ai/ha)
20: Pre-emerge herbicidal activity, phytotoxicity rating ECHCG ([2]; 250 g ai/ha) | Pre-emerge phytotoxicity rating, crop damage CORN ([10]; 250 g ai/ha) | Post-emerge Herbicidal Activity, phytotoxicity rating DIGSA ([17]; Rate 63 g ai/ha)
30: Post-emerge Herbicidal Activity, phytotoxicity rating SETVI ([13]; Rate 250 g ai/ha) | Post-emerge Herbicidal Activity, phytotoxicity rating CASOB ([19]; Rate 63 g ai/ha) | Post-emerge Herbicidal Activity, phytotoxicity rating CASOB ([19]; Rate 250 g ai/ha)
40: Pre-emerge herbicidal activity, phytotoxicity rating SORHA ([5]; 250 g ai/ha) | Post-emerge phytotoxicity rating RICE (crop damage) ([22]; Rate 250 g ai/ha)
10: Post-emerge phytotoxicity rating CORN (crop damage) ([21]; Rate 63 g ai/ha)

Nc1c(O)c(Cl)cc(F)c1N1C(=O)C2CCCCN2C1=S (single isomer, unassigned) [12-3]
80: Post-emerge Herbicidal Activity CASOB ([19]; 250 g ai/ha)
90: Pre-emerge herbicidal activity, phytotoxicity rating IPOHE ([4]; 250 g ai/ha) | Post-emerge Herbicidal Activity IPOHE ([14]; 250 g ai/ha) | Post-emerge Herbicidal Activity CHEAL ([16]; 63 g ai/ha) | Post-emerge Herbicidal Activity ABUTH ([20]; 63 g ai/ha) | Post-emerge Herbicidal Activity ABUTH ([20]; 250 g ai/ha)
10: Pre-emerge phytotoxicity rating, crop damage RICE ([11]; 63 g ai/ha) | Post-emerge Herbicidal Activity ECHCG ([12]; 250 g ai/ha) | Post-emerge Herbicidal Activity CORN ([21]; 250 g ai/ha)
5: Post-emerge Herbicidal Activity CORN ([21]; 63 g ai/ha) | Post-emerge Herbicidal Activity RICE ([22]; 250 g ai/ha)
20: Pre-emerge phytotoxicity rating, crop damage RICE ([11]; 250 g ai/ha) | Post-emerge Herbicidal Activity CASOB ([19]; 63 g ai/ha)
100: Pre-emerge herbicidal activity, phytotoxicity rating AMARE ([1]; 250 g ai/ha) | Pre-emerge herbicidal activity, phytotoxicity rating CHEAL ([6]; 63 g ai/ha) | Pre-emerge herbicidal activity, phytotoxicity rating CHEAL ([6]; 250 g ai/ha) | Pre-emerge herbicidal activity, phytotoxicity rating ABUTH ([9]; 63 g ai/ha) | Pre-emerge herbicidal activity, phytotoxicity rating ABUTH ([9]; 250 g ai/ha) | Post-emerge Herbicidal Activity CHEAL ([16]; 250 g ai/ha)
95: Pre-emerge herbicidal activity, phytotoxicity rating AMARE ([1]; 63 g ai/ha) | Post-emerge Herbicidal Activity AMARE ([18]; 63 g ai/ha)
70: Pre-emerge herbicidal activity, phytotoxicity rating CASOB ([8]; 250 g ai/ha)
99: Post-emerge Herbicidal Activity AMARE ([18]; 250 g ai/ha)
30: Pre-emerge herbicidal activity, phytotoxicity rating SETVI ([3]; 250 g ai/ha) | Pre-emerge herbicidal activity, phytotoxicity rating DIGSA ([7]; 250 g ai/ha) | Pre-emerge herbicidal activity, phytotoxicity rating CASOB ([8]; 63 g ai/ha)
0: Pre-emerge herbicidal activity, phytotoxicity rating ECHCG ([2]; 63 g ai/ha) | Pre-emerge herbicidal activity, phytotoxicity rating ECHCG ([2]; 250 g ai/ha) | Pre-emerge herbicidal activity, phytotoxicity rating SETVI ([3]; 63 g ai/ha) | Pre-emerge herbicidal activity, phytotoxicity rating IPOHE ([4]; 63 g ai/ha) | Pre-emerge herbicidal activity, phytotoxicity rating SORHA ([5]; 63 g ai/ha) | Pre-emerge herbicidal activity, phytotoxicity rating SORHA ([5]; 250 g ai/ha) | Pre-emerge herbicidal activity, phytotoxicity rating DIGSA ([7]; 63 g ai/ha) | Pre-emerge phytotoxicity rating, crop damage CORN ([10]; 63 g ai/ha) | Pre-emerge phytotoxicity rating, crop damage CORN ([10]; 250 g ai/ha) | Post-emerge Herbicidal Activity ECHCG ([12]; 63 g ai/ha) | Post-emerge Herbicidal Activity SETVI ([13]; 63 g ai/ha) | Post-emerge Herbicidal Activity SETVI ([13]; 250 g ai/ha) | Post-emerge Herbicidal Activity SORHA ([15]; 63 g ai/ha) | Post-emerge Herbicidal Activity DIGSA ([17]; 63 g ai/ha) | Post-emerge Herbicidal Activity DIGSA ([17]; 250 g ai/ha) | Post-emerge Herbicidal Activity RICE ([22]; 63 g ai/ha)
50: Post-emerge Herbicidal Activity IPOHE ([14]; 63 g ai/ha) | Post-emerge Herbicidal Activity SORHA ([15]; 250 g ai/ha)
